Assay results from patent publication US20120129939A1, “POLYAMINE INHIBITORS FOR THE TREATMENT AND PREVENTION OF PARKINSON'S DISEASE” (priority 2009, published 2012).
“Also recorded” adds a separate entry of the source.

What was measured:
SAT1 = SAT1 (Homo sapiens, UniProt P21673); conditions: literature; cited from earlier work
[1] = tested on: transgenic mice (Line 61) expressing wildtype human α-synuclein; test: α-Synuclein transgenic mice, intraventricular infusion, immunohistochemical analysis of α-synuclein accumulation and neurodegeneration; format: in vivo; conditions: for overall α-synuclein pathology / PD phenotype / neuronal accumulation of α-synuclein in the basal ganglia (mean α-synuclein cell pixel intensity, caudo-putamen) / dendritic complexity in the basal ganglia as detected by MAP2 (% of neuropil covered by MAP2 immunoreactive dendrites) / tyrosine hydroxylase (TH) fibers (TH corrected optical density in the caudo-putamen): infusion via osmotic minipumps six weeks; for neuronal accumulation of α-synuclein in the basal ganglia (mean α-synuclein cell pixel intensity, caudo-putamen): DENSPM 62 μM, Berenil 30 μM; for neuronal accumulation of α-synuclein in the basal ganglia (mean α-synuclein cell pixel intensity, caudo-putamen) / mean α-synuclein cell pixel intensity in the substantia nigra: compared to transgenic mice treated with PBS; for dendritic complexity in the basal ganglia as detected by MAP2 (% of neuropil covered by MAP2 immunoreactive dendrites) / tyrosine hydroxylase (TH) fibers (TH corrected optical density in the caudo-putamen): compared to syntgPBS; for mean α-synuclein cell pixel intensity in the substantia nigra: infusion via osmotic pumps six weeks
Source text: α-Synuclein transgenic mice and infusion: For this study, heterozygous transgenic (tg) mice (Line 61) expressing wildtype human α-synuclein (hα-syn) under the regulatory control of the mThy1 promoter were used (Rockenstein, E. et al. 2002). These animals were selected because they display abnormal accumulation of detergent-insoluble hα-syn and develop hα-syn-immunoreactive inclusion like structures in the basal ganglia, cortex, and limbic system (Rockentein, E. et al. 2002). Furthermore, these animals also display neurodegenerative and motor deficits that mimic certain aspects of PD and Dementia with Lewy bodies (Fleming, S. et al. 2004). Infusions were performed as previously described (Veinbergs, I. et al. 2001). In order to evaluate the effects of the polyamine pathway, hα-syn tg mice (10-11 months old) received intraventricular infusions with a cannula implanted into the skull and connected to osmotic minipumps of either vehicle, Beneril, or DENSPM. A total of 15 hu-syn tg mice (n=5 per group) were used for these experiments. Mice were treated for six weeks; the compounds were dissolved in 0.9% NaCl at a concentration of 62 μM for DENSPM and 30 μM for Berenil at a pH of 7.2. Then, 200 μL of these solutions were filled into the osmotic minipump (Alzet) ensuring constant delivery ([…]). The minipump was implanted subcutaneously on the back under light anesthesia. An additional group of control non tg (n=5) mice were implanted with minipumps filled with vehicle only. All procedures were completed under the specifications set forth by the Institutional Animal Care and Use Committee.
Brains were removed and divided sagittally. One hemibrain was postfixed in phosphate-buffered 4% paraformaldehyde, pH 7.4, at 4° C. for 48 h and sectioned at 40 μm with a Vibratome 2000 (Leica) and placed in cryosolution, whereas the other hemibrain was snap frozen and stored at −70° C. for further analysis. Sections were first washed 3×5 minutes each in PBS. They were then pretreated with 1% Triton-X, 3% hydrogen peroxide in PBS for 15 minutes, washed again 3×5 min in PBS and blocked in 10% serum matching the animal the secondary antibody was raised in for 1 hour and then washed in PBS. Sections were then placed in primary antibody: mouse anti-TH, rabbit anti-(h) α-syn, mouse anti-MAP2 (Chemicon, (1:500)) overnight in 4° C. Sections were washed 3×5 min in PBS and then placed in biotynilated secondary antibody (1:100) (Vector Laboratories) for 2 hours. After washing again 3 times in PBS, sections were placed in 20% […] (DAB) (Vector Laboratories) for 20 seconds. The reaction with DAB was halted by immersing the sections in double distilled water. Sections were then mounted, dried and coverslipped with Entillin (Fisher Scientific). Sections for fluorescent immunohistochemistry were treated with mouse monoclonal anti-microtuble-associated protein 2 (MAP2, 1:50, Roche Molecular Biochemicals) primary antibody. This antibody was then detected with the fluorescein isothiocyanate (FITC)-conjugated anti-mouse secondary antibody (Vector Laboratories). Coverslips were air-dried overnight, mounted on slides with anti-fading media (Vectashield, Vector Laboratories), and imaged with the LSCM (MRC 1024, Bio-Rad). The immunolabeled blind-coded sections were imaged by LSCM (MRC1024, Bio-Rad) and analyzed with the Image 1.43 program (NIH), as previously described (Fleming, S. et al. 2004).

α-synuclein = α-synuclein (Homo sapiens, UniProt P37840); conditions: in vitro system, exogenously added (Antony 2003); cited from earlier work
[2] = tested on: yeast expressing α-synuclein (wildtype and A53T); conditions: YPGal medium, spermine 0, 0.2, 0.4 mM; Syn-WT and Syn-A53T versus empty vector strain
[3] = tested on: Murine L1210 leukemia cells; test: Polyamine determinations (HPLC) in cultured cells treated with DFMO or DFMO analogs; format: cell-based; design: PUT (amount): unit not given beside the values; SPD (amount) / SPM (amount) / [PUT] (concentration) / [SPD] (concentration) / [SPM] (concentration) / 48 hr avg put / 48 hr avg spd: unit not given here; conditions: for 24 hr avg put / 24 hr avg spd / 24 hr avg spm / 48 hr avg put / 48 hr avg spd / 48 hr avg spm: average of 10, 50, 100 uM treatments; for 24 hr avg put / 24 hr avg spd / 24 hr avg spm: 24 hour treatment
Procedure: Cell Growth. […] After 24 or 48 h, cells were removed from tubes for counting and viability determinations. Cell number was determined by electronic particle counting (Model 2F Coulter Counter; Coulter Electron-ics, Hialeah, Fla.) and confirmed periodically with hemocytometer measurements. […] The percentage of control growth was determined as follows. Cell samples were washed twice in cold PBS, and an aliquot of […] was removed for polyamine determination. The cells were pelleted, and the PBS supernatant was carefully removed with a cotton swab. […] The supernatant was frozen at -20° C. until analysis by HPLC. […] The column temperature was maintained at 65° C. with water from a circulating bath. The column was eluted at a flow rate of 16 ml/h with an initial column pressure of 500 psi which decreased with increasing ionic strength of the elution buffer. […] The column was reequilibrated for 10 min with Buffer 1 prior to loading the next sample. The column eluate was derivatized with 0.05% o-phthalaldehyde (Durrum Chemical Corp.) in 0.4M borate buffer (pH 10.4) containing […] and 0.09% Brij 35. The o-phthalaldehyde reagent flow rate was 8 ml/h. The derivatized eluate was analyzed for polyamine content by passing it through the flow cell of a […] (Fluoro-Monitor; American Instrument Co., Silver Spring, Md.) with a fixed excitation wavelength of 360 nm and emission wavelength of […]. Data were analyzed using a Hewlett Packard Model […] automation system.

[4] = 10 uM treatment, 24 hr treatment
[5] = 10 uM treatment, 48 hour treatment
[6] = 50 uM treatment, 24 hr treatment
[7] = 50 uM treatment, 48 hour treatment
[8] = 100 uM treatment, 24 hr treatment
[9] = 100 uM treatment, 48 hour treatment

SAT1, sequence (P21673 whole entry, the tested form may be a part): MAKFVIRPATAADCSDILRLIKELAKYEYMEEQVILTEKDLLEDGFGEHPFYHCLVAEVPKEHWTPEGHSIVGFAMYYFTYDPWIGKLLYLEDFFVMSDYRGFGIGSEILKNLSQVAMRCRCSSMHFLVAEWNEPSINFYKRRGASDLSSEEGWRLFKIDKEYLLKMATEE

## CCNCCCNCCCNCCCNCC [DENSPM, N1, N11-diethylnorspermine]
SAT1
  SAT1 activity: increases
[1]
  overall α-synuclein pathology / PD phenotype: partially rescued; also recorded: partially improved
  neuronal accumulation of α-synuclein in the basal ganglia (mean α-synuclein cell pixel intensity, caudo-putamen): decreased
  dendritic complexity in the basal ganglia as detected by MAP2 (% of neuropil covered by MAP2 immunoreactive dendrites): ameliorated; also recorded: rescued
  tyrosine hydroxylase (TH) fibers (TH corrected optical density in the caudo-putamen): partially rescued; also recorded: increased
  mean α-synuclein cell pixel intensity in the substantia nigra: trending decrease

## NCCCCNCCCN [spermidine]
α-synuclein
  aggregation of α-synuclein: accelerate

## CC(=O)NCC(=O)O.CC(=O)NCC(=O)O.N=C(N)c1ccc(N=NNc2ccc(C(=N)N)cc2)cc1 [Berenil, diminazene aceturate]
SAT1
  SAT1 activity: reduces
[1]
  overall α-synuclein pathology / PD phenotype: worsened
  neuronal accumulation of α-synuclein in the basal ganglia (mean α-synuclein cell pixel intensity, caudo-putamen): increased
  dendritic complexity in the basal ganglia as detected by MAP2 (% of neuropil covered by MAP2 immunoreactive dendrites): worsened; also recorded: decrease
  tyrosine hydroxylase (TH) fibers (TH corrected optical density in the caudo-putamen): worsened; also recorded: decreased
  mean α-synuclein cell pixel intensity in the substantia nigra: increased

## NCCCNCCCCNCCCN [Spermine, spermine]
α-synuclein
  aggregation of α-synuclein: accelerate
[2]
  toxicity of exogenous spermine (growth curves, OD600): more toxic

## NCCC[C@](N)(C(=O)O)C(F)F [DFMO, α-difluoromethylornithine, reference compound]
[3]; [4]
  PUT (amount): 63429
  SPD (amount): 2369255
  SPM (amount): 2363841
  [PUT] (concentration): 0.03087
  [SPD] (concentration): 2.908
  [SPM] (concentration): 7.639
[3]; [5]
  SPD (amount): 254356
  SPM (amount): 373610
  [PUT] (concentration): 0
  [SPD] (concentration): 0.3122
  [SPM] (concentration): 1.207
[3]; [6]
  SPD (amount): 542711
  SPM (amount): 1315606
  [PUT] (concentration): 0
  [SPD] (concentration): 0.6661
  [SPM] (concentration): 4.251
[3]; [7]
  SPD (amount): 44007
  SPM (amount): 482723
  [PUT] (concentration): 0
  [SPD] (concentration): 0.05401
  [SPM] (concentration): 1.56
[3]; [8]
  SPD (amount): 42842
  SPM (amount): 98016
  [PUT] (concentration): 0
  [SPD] (concentration): 0.05258
  [SPM] (concentration): 0.3167
[3]; [9]
  SPD (amount): 220260
  SPM (amount): 7071485
  [PUT] (concentration): 0
  [SPD] (concentration): 0.2703
  [SPM] (concentration): 22.85
[3]
  24 hr avg put: 0.01029
  24 hr avg spd: 1.209
  24 hr avg spm: 4.069
[3]; 48 hour treatment
  48 hr avg put: 0
  48 hr avg spd: 0.2122
  48 hr avg spm: 8.54

## CCOC(=O)C(N)(CCCN)C(F)F (stereo not drawn) [DFMO Analog 1]
[3]; [4]
  PUT (amount): 14507
  SPD (amount): 1202403
  SPM (amount): 149654
  [PUT] (concentration): 0.007061
  [SPD] (concentration): 0.2484
  [SPM] (concentration): 0.4836
[3]; [5]
  PUT (amount): 43116
  SPD (amount): 1887299
  SPM (amount): 2659801
  [PUT] (concentration): 0.02099
  [SPD] (concentration): 2.316
  [SPM] (concentration): 8.595
[3]; [6]
  SPD (amount): 163914
  SPM (amount): 168544
  [PUT] (concentration): 0
  [SPD] (concentration): 0.2012
  [SPM] (concentration): 0.5447
[3]; [7]
  PUT (amount): 23355
  SPD (amount): 1774662
  SPM (amount): 4106905
  [PUT] (concentration): 0.01137
  [SPD] (concentration): 2.178
  [SPM] (concentration): 13.27
[3]; [8]
  SPD (amount): 377626
  SPM (amount): 500166
  [SPD] (concentration): 0.4635
  [SPM] (concentration): 1.616
[3]; [9]
  SPD (amount): 332304
  SPM (amount): 1568383
  [PUT] (concentration): 0
  [SPD] (concentration): 0.4078
  [SPM] (concentration): 5.068
[3]
  24 hr avg put: 0.002354
  24 hr avg spd: 0.3043
  24 hr avg spm: 0.8815
[3]; 48 hour treatment
  48 hr avg put: 0.01078
  48 hr avg spd: 1.634
  48 hr avg spm: 8.978

## CCOC(=O)C(CCCNC(=O)OC)(NC(=O)OC)C(F)F (stereo not drawn) [DFMO Analog 2]
[3]; [4]
  PUT (amount): 56963
  SPD (amount): 651020
  SPM (amount): 481606
  [PUT] (concentration): 0.02773
  [SPD] (concentration): 0.799
  [SPM] (concentration): 1.556
[3]; [5]
  PUT (amount): 124533
  SPD (amount): 3898235
  SPM (amount): 4032041
  [PUT] (concentration): 0.06062
  [SPD] (concentration): 4.784
  [SPM] (concentration): 13.03
[3]; [6]
  PUT (amount): 379546
  SPD (amount): 3615812
  SPM (amount): 2470785
  [PUT] (concentration): 0.1847
  [SPD] (concentration): 4.438
  [SPM] (concentration): 7.985
[3]; [7]
  PUT (amount): 34544
  SPD (amount): 848798
  SPM (amount): 693740
  [PUT] (concentration): 0.01681
  [SPD] (concentration): 1.042
  [SPM] (concentration): 2.242
[3]; [8]
  PUT (amount): 27933
  SPD (amount): 323941
  SPM (amount): 212917
  [PUT] (concentration): 0.0136
  [SPD] (concentration): 0.3976
  [SPM] (concentration): 0.6881
[3]; [9]
  PUT (amount): 7198
  SPD (amount): 231781
  SPM (amount): 236426
  [PUT] (concentration): 0.003504
  [SPD] (concentration): 0.2845
  [SPM] (concentration): 0.764
[3]
  24 hr avg put: 0.07535
  24 hr avg spd: 1.878
  24 hr avg spm: 3.41
[3]; 48 hour treatment
  48 hr avg put: 0.02698
  48 hr avg spd: 2.037
  48 hr avg spm: 5.345
